Data as given in patent US20140296255A1, “LYSINE DEMETHYLASE INHIBITORS FOR THROMBOSIS AND CARDIOVASCULAR DISEASES” (ORYZONG GENOMICS, S.A., priority 2011, published 2014).
Read-outs that look alike come from different tables or passages of the source.

Experiments:
[1] = test system: H3K4 methylation in SH-SY5Y cells; experiment: Western blot for dimethylated H3K4 in SH-SY5Y cells; format: cell-based
From the text: B-actin was used as a loading control.

[2] = target: T1, Human recombinant monoamine oxidase MAO-A (Homo sapiens, UniProt P21397); experiment: MAO-A inhibition, kynuramine fluorescence assay; format: biochemical
T1 construct: purchased Sigma Aldrich
T1 sequence (P21397 1-527): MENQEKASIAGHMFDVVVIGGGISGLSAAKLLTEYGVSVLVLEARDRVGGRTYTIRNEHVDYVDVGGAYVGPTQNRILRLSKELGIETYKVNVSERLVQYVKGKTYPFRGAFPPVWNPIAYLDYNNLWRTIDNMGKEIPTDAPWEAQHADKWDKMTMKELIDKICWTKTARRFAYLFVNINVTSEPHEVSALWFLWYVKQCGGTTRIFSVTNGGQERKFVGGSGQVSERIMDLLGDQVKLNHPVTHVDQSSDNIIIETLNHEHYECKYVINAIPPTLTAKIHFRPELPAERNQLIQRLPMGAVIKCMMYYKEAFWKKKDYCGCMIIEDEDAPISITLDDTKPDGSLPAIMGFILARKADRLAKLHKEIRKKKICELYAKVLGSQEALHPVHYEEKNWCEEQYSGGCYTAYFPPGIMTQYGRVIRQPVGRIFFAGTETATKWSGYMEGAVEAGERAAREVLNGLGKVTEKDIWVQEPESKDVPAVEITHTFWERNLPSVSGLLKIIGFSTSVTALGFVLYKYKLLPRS
From the text: (§1) Human recombinant monoamine oxidase proteins MAO-A and MAO-B were purchased from Sigma Aldrich. MAOs catalyze the oxidative deamination of primary, secondary and tertiary amines. In order to monitor MAO enzymatic activities and/or their inhibition rate by inhibitor(s) of interest, a fluorescent-based (inhibitor)-screening assay was set up. 3-(2-Aminophenyl)-3-oxopropanamine (kynuramine dihydrobromide, Sigma Aldrich), a non fluorescent compound was chosen as a substrate. Kynuramine is a non-specific substrate for both MAOs activities. While undergoing oxidative deamination by MAO activities, kynuramine is converted into 4-hydroxyquinoline (4-HQ), a resulting fluorescent product.
(§2) The monoamine oxidase activity was estimated by measuring the conversion of kynuramine into 4-hydroxyquinoline. Assays were conducted in 96-well black plates with clear bottom (Corning) in a final volume of 100 μL. The assay buffer was 100 mM HEPES, pH 7.5. Each experiment was performed in duplicate within the same experiment.
(§3) Briefly, a fixed amount of MAO (0.25 μg for MAO-A and 0.5 μg for MAO-B) was incubated on ice for 15 minutes in the reaction buffer, in the absence and/or in the presence of various concentrations of inhibitor (e.g., from 0 to 50 μM, depending on the inhibitor strength).
(§4) After leaving the enzyme(s) interacting with the inhibitor, 60 to 90 μM of kynuramine was added to each reaction for MAO-B and MAO-A assay respectively, and the reaction was left for one hour at 37° C. in the dark. The oxidative deamination of the substrate was stopped by adding 50 μL (v/v) of NaOH 2N. The conversion of kynuramine to 4-hydroxyquinoline, was monitored by fluorescence (excitation at 320 nm, emission at 360 nm) using a microplate reader (Infinite 200, Tecan). Arbitrary units were used to measure levels of fluorescence produced in the absence and/or in the presence of inhibitor.
(§5) The Ki (IC50) of each inhibitor was determined at Vmax/2.

[3] = target: T2, Human recombinant LSD1 protein (Homo sapiens, UniProt O60341); experiment: LSD1 demethylase inhibition, Amplex Red peroxide/peroxidase-coupled assay; format: biochemical; conditions: further, more elaborate determination (Table 1)
T2 construct: purchased BPS Bioscience Inc
From the text: Compounds for use in the methods of the invention can be identified by their ability to inhibit LSD1. The ability of compounds to inhibit LSD1 can be tested as follows. Human recombinant LSD1 protein was purchased from BPS Bioscience Inc. In order to monitor LSD1 enzymatic activity and/or its inhibition rate by the LSD1 inhibitor(s) of interest, di-methylated H3-K4 peptide (Millipore) was chosen as a substrate. The demethylase activity was estimated, under aerobic conditions, by measuring the release of H2O2 produced during the catalytic process, using the Amplex® Red peroxide/peroxidase-coupled assay kit (Invitrogen).
Within the experiment, each concentration of inhibitor was tested in duplicate. […] The enzymatic reactions were set up in a 50 mM sodium phosphate, pH 7.4 buffer. At the end of the incubation, Amplex® Red reagent and horseradish peroxidase (HPR) solution were added to the reaction according to the recommendations provided by the supplier (Invitrogen), and left to incubate for 30 extra minutes at room temperature in the dark. A 1 μM H2O2 solution was used as a control of the kit efficiency. The conversion of the Amplex® Red reagent to resorufin due to the presence of H2O2 in the assay, was monitored by fluorescence (excitation at 540 nm, emission at 590 nm) using a microplate reader (Infinite 200, Tecan). Arbitrary units were used to measure level of H2O2 produced in the absence and/or in the presence of inhibitor.
The maximum demethylase activity of LSD1 was obtained in the absence of inhibitor and corrected for background fluorescence in the absence of LSD1. The Ki (IC50) of each inhibitor was estimated at half of the maximum activity.

platelets = experiment: Platelet levels in mice after five once daily i.p. injections; format: in vivo, mice (Hsd:Athymic Nude-Foxnlnu); conditions: blood 60 minutes after last administration
Procedure: On the fifth day, 60 minutes after the administration, mice were sacrificed and blood was collected in sodium citrate-containing tubes for hemogram analysis. […] Platelet levels were determined in a standard hematology analyzer (Abacus Junior Vet, from Diatron) following the manufacturer's instructions.
(§6) 20% 2-hydroxypropyl-j3-cyclodextrin in H2O was used as a vehicle. When necessary, 10% DMSO was also added in the vehicle. Each day, compounds were administered in a single intraperitoneal injection with administration volumes of 15 ml/kg.
(§7) Mice strain was Hsd:Athymic Nude-Foxnlnu. Animals were maintained in air and temperature controlled cages with regular supply of water and food.

Granulocytes = experiment: Granulocyte levels in mice after five once daily injections; format: in vivo, mice (Hsd:Athymic Nude-Foxnlnu); conditions: five consecutive days
Procedure: (§8) On the fifth day, 60 minutes after the administration, mice were sacrificed and blood was collected in sodium citrate-containing tubes for hemogram analysis. Platelet levels were determined and referred as % of platelets compared with the levels found in mice treated with vehicle. Platelet levels were determined in a standard hematology analyzer (Abacus Junior Vet, from Diatron) following the manufacturer's instructions.
as §6, §7
(§9) Measurements of all blood cell types were conducted in the same manner as described above for platelets. Data in the table above are expressed as the % of cells vs vehicle.

Red blood cells = experiment: Red blood cell levels in mice after five once daily injections; format: in vivo, mice (Hsd:Athymic Nude-Foxnlnu); conditions: five consecutive days
Procedure: as §8, §6, §7, §9

Lymphocytes = experiment: Lymphocyte levels in mice after five once daily injections; format: in vivo, mice (Hsd:Athymic Nude-Foxnlnu); conditions: five consecutive days
Procedure: as §8, §6, §7, §9

White Blood Cells = experiment: White blood cell levels in mice after five once daily injections; format: in vivo, mice (Hsd:Athymic Nude-Foxnlnu); conditions: five consecutive days
Procedure: as §8, §6, §7, §9

[4] = target: T3, Human recombinant monoamine oxidase MAO-B (Homo sapiens, UniProt P27338); experiment: MAO-B inhibition, kynuramine fluorescence assay; format: biochemical; conditions: further, more elaborate determination (Table 1)
T3 construct: purchased Sigma Aldrich
T3 sequence (P27338 1-520): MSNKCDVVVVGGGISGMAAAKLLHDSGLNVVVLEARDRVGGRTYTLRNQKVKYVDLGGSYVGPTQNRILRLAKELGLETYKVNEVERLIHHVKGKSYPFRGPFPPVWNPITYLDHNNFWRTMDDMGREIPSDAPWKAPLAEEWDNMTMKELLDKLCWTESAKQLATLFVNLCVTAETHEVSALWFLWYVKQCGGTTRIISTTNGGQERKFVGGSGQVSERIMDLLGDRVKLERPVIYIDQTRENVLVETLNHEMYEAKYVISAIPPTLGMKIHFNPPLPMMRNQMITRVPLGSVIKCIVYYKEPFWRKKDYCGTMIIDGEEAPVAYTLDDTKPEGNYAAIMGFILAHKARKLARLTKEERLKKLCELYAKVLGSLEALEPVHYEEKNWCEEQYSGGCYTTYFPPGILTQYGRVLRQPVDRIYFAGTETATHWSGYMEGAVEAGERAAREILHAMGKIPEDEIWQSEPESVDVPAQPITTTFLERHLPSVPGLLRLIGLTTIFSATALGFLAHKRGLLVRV
From the text: as §1, §2, §3, §4, §5

[5] = further, more elaborate determination (Table 1), read-out: MAO-A IC50
[6] = 10 mg/kg i.p. once daily for five days
[7] = 20 mg/kg i.p. once daily for five days
[8] = 40 mg/kg i.p. once daily for five days
[9] = 3 mg/kg i.p. once daily for five days
[10] = 30 mg/kg i.p. once daily for five days

Compound	IC50 [2, 5] [µM]	IC50 [3] [µM]	% platelets vs. Vehicle (platelets; [6]) [%]	% platelets vs. Vehicle (platelets; [7]) [%]	% platelets vs. Vehicle (platelets; [8]) [%]	IC50 [4] [µM]	% platelets vs. Vehicle (platelets; [10]) [%]	also measured
NC(=O)CN[C@H]1C[C@@H]1c1ccc(OCc2ccccc2)cc1 (racemic) [Compound 1]	> 2	< 0.2	66	55	34			potency at increasing global dimethylated H3K4 levels as compared to tranylcypromine ([1]; Dual-1 at 100 μM vs parnate at 250 μM): ten-fold or more potent; H3K4 methylation (western blot) ([1]; compound at 100 μM, one, two, and three days): increases H3K4 methylation in cells in a time dependent manner; % platelets vs. Vehicle (platelets; 5 mg/kg i.p. once daily for five days): 91%
CN1CCN(C(=O)CN[C@H]2C[C@@H]2c2ccc(OCc3ccccc3)cc2)CC1 (racemic) [Compound 3]	> 2		5					Granulocytes, % of cells vs vehicle (Granulocytes; 1 mg/kg): 69%; Granulocytes, % of cells vs vehicle (Granulocytes; 3 mg/kg): 63%; Granulocytes, % of cells vs vehicle (Granulocytes; 10 mg/kg): 23%; % platelets vs. Vehicle (platelets; 1 mg/kg i.p. once daily for five days): 46%; % platelets vs. Vehicle (platelets; [9]): 16%; Red blood cells, % of cells vs vehicle (Red blood cells; 1 mg/kg): 103%; Red blood cells, % of cells vs vehicle (Red blood cells; 3 mg/kg): 101%; Red blood cells, % of cells vs vehicle (Red blood cells; 10 mg/kg): 92%; Lymphocytes, % of cells vs vehicle (Lymphocytes; 1 mg/kg): 115%; Lymphocytes, % of cells vs vehicle (Lymphocytes; 3 mg/kg): 90%; Lymphocytes, % of cells vs vehicle (Lymphocytes; 10 mg/kg): 35%; White Blood Cells, % of cells vs vehicle (White Blood Cells; 1 mg/kg): 86%; White Blood Cells, % of cells vs vehicle (White Blood Cells; 3 mg/kg): 76%; White Blood Cells, % of cells vs vehicle (White Blood Cells; 10 mg/kg): 29%
N[C@H]1CCN(CCN[C@H]2C[C@@H]2c2ccc(-c3cccc(C(F)(F)F)c3)cc2)C1 (racemic) [Compound 4]	> 2	< 0.1	19			> 2	7	% platelets vs. Vehicle (platelets; [9]): 87%; % platelets vs. Vehicle (platelets; 9 mg/kg i.p. once daily for five days): 30%; % platelets vs. Vehicle (platelets; 18 mg/kg i.p. once daily for five days): 19%; % platelets vs. Vehicle (platelets; 36 mg/kg i.p. once daily for five days): 11%
N[C@H]1C[C@@H]1c1ccc(-c2cccc(C(F)(F)F)c2)nc1 (racemic) [Compound 6]			87				63	
N[C@H]1C[C@@H]1c1ccc(-c2cccc(O)c2)cc1 (racemic) [Compound 7]	> 0.2	< 0.07				> 1		IC50 ([2]; initial determination, read-out: IC50 for MAO-A): > 1 µM; % platelets vs. Vehicle (platelets; 17 mg/kg i.p. once daily for five days): 56%; % platelets vs. Vehicle (platelets; 34 mg/kg i.p. once daily for five days): 46%; % platelets vs. Vehicle (platelets; 52 mg/kg i.p. once daily for five days): 63%
CS(=O)(=O)Nc1cccc(-c2ccc([C@H]3C[C@@H]3N)cn2)c1 (racemic) [Compound 8]				68	44			
CC(C)S(=O)(=O)Nc1cccc(-c2ccc([C@H]3C[C@@H]3N)cc2)c1 (racemic) [Compound 9]	> 1	< 0.07				> 10	10	
NC(=O)CN[C@H]1C[C@@H]1c1ccc(OCc2ccccc2)cc1 (single isomer, unassigned) [Compound 2]	> 2	< 0.2		35	27			% platelets vs. Vehicle (platelets; 60 mg/kg i.p. once daily for five days): 16%
